Earlier results, collected in publication PMC8625207, “Antikinetoplastid Activity of Sesquiterpenes Isolated from the Zoanthid Palythoa aff. clavata” (Pharmaceuticals, 2021).

Tested on: T. brucei rhodes
Design: method as in PMID 19513006
Conditions: cited from earlier work

C=C1C(=O)OC2C1CCC1(C)C(O)CCC(=C)C21 (stereo not shown) [compound 19]
selectivity against T. brucei rhodes: high selectivity
